The values below come from US20230395193A1 (priority 2020, published 2023).

For one assay, the system named is SARS-CoV-1 (Urbani). It counts as cell-based.
Assay [1] concerns SARS-CoV-2. It counts as cell-based.
The subject of a further assay is canine coronavirus. The note with it: previous study (Amici et al. 2006); cited from earlier work.
The next assay concerns SARS-CoV-1. To be noted: cited from earlier work.
Assay [2] concerns SARS-CoV-2. It counts as cell-based. This is another data set of the same source.
Assay [3] deals with SARS-CoV-1, MERS-CoV and SARS-CoV-2 proteins in HEK293T cells. On the set-up: species or system human.

Turning to `CCCCc1oc2ccccc2c1C(=O)c1cc(I)c(OCCN(CC)CC)c(I)c1` [amiodarone], the “Antiviral activity against SARS-CoV-1 (in words)” value in the assay on SARS-CoV-1 (Urbani) was “inhibited”. In the assay with SARS-CoV-2 [1], the “Antiviral activity against SARS-CoV-2 (in words)” value is recorded as “inhibited”.

Regarding `COc1ccc2c(c1)c(CC(=O)O)c(C)n2C(=O)c1ccc(Cl)cc1` [indomethacin], the “Efficacy against canine coronavirus in vivo (in words)” value with canine coronavirus is “showed efficacy”. Also, the “Inhibition of SARS-CoV-1 in vitro (in words)” value in the assay with SARS-CoV-1 is “similarly high levels of the drug were needed for inhibition”. Besides, the “Inhibition of SARS-CoV-2 in vitro (in words)” value in the assay with SARS-CoV-2 [2] is listed as “did not inhibit SARS-CoV-2 in vitro at reasonable antiviral concentrations”.

In assay [3], E-Q8WVM8 had an MIST_MERS of 0.7214, an MIST_SARS1 of 0.3063, an MIST_SARS2 of 0 and a Saint_MERS of 0.95. In assay [3], this compound showed a Saint_SARS1 of 0 and a Saint_SARS2 of 0.

In assay [3], E-Q9UBS3 displayed an MIST_MERS of 0.9729, an MIST_SARS1 of 0, an MIST_SARS2 of 0 and a Saint_MERS of 0.98. In assay [3], this compound gave a Saint_SARS1 of 0 and a Saint_SARS2 of 0.

In assay [3], E-Q9ULP9 came in with an MIST_MERS of 0, an MIST_SARS1 of 0.9165, an MIST_SARS2 of 0 and a Saint_MERS of 0. In assay [3], this compound registered a Saint_SARS1 of 0.97 and a Saint_SARS2 of 0.

For the compound M-Q8TEM1, in assay [3], the MIST_MERS is on record as 0.7258, the MIST_SARS1 is listed as 0.02986, the MIST_SARS2 came out at 0 and the Saint_MERS is listed as 1. In assay [3], this compound showed a Saint_SARS1 of 0 and a Saint_SARS2 of 0.

Turning to M-Q9NVH2, in assay [3], the MIST_MERS came to 0, the MIST_SARS1 amounted to 0.8943, the MIST_SARS2 amounted to 0.8082 and the Saint_MERS was found to be 0. In assay [3], this compound had a Saint_SARS1 of 0.97 and a Saint_SARS2 of 0.64.

In assay [3], M-Q96HW7 registered an MIST_MERS of 0, an MIST_SARS1 of 0.8124, an MIST_SARS2 of 0.9433 and a Saint_MERS of 0. In assay [3], this compound showed a Saint_SARS1 of 0.33 and a Saint_SARS2 of 0.65.
